The results in this text go back to patent publication US12703729B2, “GIP agonist compounds and methods” (Zealand Pharma A/S, priority 2014, dated 2026).

Starred links: 1 amine or outer side, 2 acyl side, 3 side chain; linkers in the order of their positions; H or OH if unused. Non-standard residues stand in square brackets, D forms with d. Residues, ends and D or L forms follow the SMILES beside them. Groups on a side chain read outwards from the residue. *: point of attachment. C20 diacid = O=C(O)CCCCCCCCCCCCCCCCCCC(=O)*; γGlu = O=C(O)[C@H](CCC(=O)[*:2])N[*:1]; AEEA = NCCOCCOCC(=O)O; Aib = CC(C)(N)C(=O)O

Data set [1] concerns the target T1, human GIP R (Homo sapiens, UniProt P48546).
T1 sequence (P48546 22-466): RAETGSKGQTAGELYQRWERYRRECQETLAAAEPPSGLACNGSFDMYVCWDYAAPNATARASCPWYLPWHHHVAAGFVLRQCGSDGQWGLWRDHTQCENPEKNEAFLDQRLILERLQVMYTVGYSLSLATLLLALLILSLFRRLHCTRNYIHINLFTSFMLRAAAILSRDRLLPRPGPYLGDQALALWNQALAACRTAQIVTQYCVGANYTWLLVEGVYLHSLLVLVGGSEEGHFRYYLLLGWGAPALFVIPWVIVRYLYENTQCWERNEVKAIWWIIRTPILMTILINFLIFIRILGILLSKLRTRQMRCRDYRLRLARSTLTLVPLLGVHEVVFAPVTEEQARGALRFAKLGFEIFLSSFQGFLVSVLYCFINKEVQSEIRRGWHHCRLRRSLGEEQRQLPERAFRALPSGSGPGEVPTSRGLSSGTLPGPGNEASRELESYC
The experiment in a line: cell-based.

Data set [2] addresses T2, human GIP receptor (GIP R) (Homo sapiens, UniProt P48546).
T2 sequence (P48546 22-466): T1 sequence (P48546 22-466)
The experiment in a line: Activity assay at human GIP receptor, cAMP induction (AlphaScreen), Example 3. In general terms: Alpha assays give light when donor and acceptor beads are brought close together.

In data set [3] the target is human GLP-1 receptor (GLP-1R) (Homo sapiens, UniProt P43220). The experiment in a line: Activity assay at human GLP-1 receptor, cAMP induction (AlphaScreen), Example 3.
human GLP-1 receptor (GLP-1R), sequence (P43220 24-463): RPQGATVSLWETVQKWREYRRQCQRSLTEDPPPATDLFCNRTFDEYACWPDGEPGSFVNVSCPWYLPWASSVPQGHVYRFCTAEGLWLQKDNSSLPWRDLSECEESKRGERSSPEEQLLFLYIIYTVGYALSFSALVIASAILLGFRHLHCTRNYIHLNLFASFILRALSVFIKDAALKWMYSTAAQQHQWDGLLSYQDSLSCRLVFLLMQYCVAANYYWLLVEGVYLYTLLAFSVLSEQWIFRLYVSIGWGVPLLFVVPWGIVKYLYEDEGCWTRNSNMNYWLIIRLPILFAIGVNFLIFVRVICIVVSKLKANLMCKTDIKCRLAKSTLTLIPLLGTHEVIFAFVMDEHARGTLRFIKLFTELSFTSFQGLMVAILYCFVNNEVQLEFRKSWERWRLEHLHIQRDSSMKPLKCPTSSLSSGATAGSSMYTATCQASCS
Data set [4] in a line: in vivo. The settings on record: male, C57BL/6J, mouse; for bioavailability: Bioavailability s.c.; for half-life: 200 nmol/kg.
Where [5] appears, read: iv, Terminal elimination half-life T½ i.v.
The mark [6] stands for this setting: sc, Terminal elimination half-life T½ s.c.

Take `CC[C@H](C)[C@H](NC(=O)[C@H](CO)NC(=O)[C@H](Cc1ccc(O)cc1)NC(=O)[C@H](CC(=O)O)NC(=O)[C@H](CO)NC(=O)[C@@H](NC(=O)[C@H](Cc1ccccc1)NC(=O)[C@@H](NC(=O)CNC(=O)[C@H](CCC(=O)O)NC(=O)C(C)(C)NC(=O)[C@@H](N)Cc1ccc(O)cc1)[C@@H](C)O)[C@@H](C)CC)C(=O)N[C@@H](CCC(=O)O)C(=O)N[C@@H](CC(C)C)C(=O)N[C@@H](CC(=O)O)C(=O)N[C@@H](CCCCN)C(=O)N[C@@H](CCCCNC(=O)COCCOCCNC(=O)COCCOCCNC(=O)CC[C@H](NC(=O)CCCCCCCCCCCCCCCCCCC(=O)O)C(=O)O)C(=O)N[C@@H](C)C(=O)N[C@@H](C)C(=O)N[C@@H](CCC(N)=O)C(=O)N[C@@H](CC(=O)O)C(=O)N[C@@H](Cc1ccccc1)C(=O)N[C@H](C(=O)N[C@@H](CC(N)=O)C(=O)N[C@@H](Cc1c[nH]c2ccccc12)C(=O)N[C@@H](CC(C)C)C(=O)N[C@@H](CC(C)C)C(=O)N[C@@H](C)C(=O)N[C@@H](CCC(N)=O)C(=O)NCC(=O)N1CCC[C@H]1C(=O)N[C@@H](CO)C(=O)N[C@@H](CO)C(=O)NCC(=O)N[C@@H](C)C(=O)N1CCC[C@H]1C(=O)N1CCC[C@H]1C(=O)N1CCC[C@H]1C(=O)N[C@@H](CO)C(N)=O)C(C)C` [Compound 10] (H-Y[Aib]EGTFISDYSIELDKK([AEEA-AEEA-γGlu-C20 diacid])AAQDFVNWLLAQGPSSGAPPPS-NH2): the EC50 (commonly the concentration needed to bring the measured effect to its halfway point) in data set [1] was 7 pM; in data set [2] it was 8 pM; in data set [3] it was over 10000 pM. The bioavailability (as a rule, the share of a dose that reaches the circulation, judged against a reference dose that is usually intravenous) was 100% in data set [4] and 77% in data set [4] (sc, repeated test). Further, the half-life (as a rule, the time in which the quantity being followed falls by half) in data set [4] (setting [5]) was 16.9 h; in data set [4] (setting [6]), 21.1 h. Also, the time to peak (Tmax) (commonly the time at which the peak concentration occurs) in data set [4] (sc) worked out at 4 h.

In the case of `CC[C@H](C)[C@H](NC(=O)[C@H](CO)NC(=O)[C@H](Cc1ccc(O)cc1)NC(=O)[C@H](CC(=O)O)NC(=O)[C@H](CO)NC(=O)[C@@H](NC(=O)[C@H](Cc1ccccc1)NC(=O)[C@@H](NC(=O)CNC(=O)[C@H](CCC(=O)O)NC(=O)C(C)(C)NC(=O)[C@@H](N)Cc1ccc(O)cc1)[C@@H](C)O)[C@@H](C)CC)C(=O)N[C@@H](CCC(=O)O)C(=O)N[C@@H](CC(C)C)C(=O)N[C@@H](CCC(=O)O)C(=O)N[C@@H](CCCCN)C(=O)N[C@@H](CCCCNC(=O)COCCOCCNC(=O)COCCOCCNC(=O)CC[C@H](NC(=O)CCCCCCCCCCCCCCCCCCC(=O)O)C(=O)O)C(=O)N[C@@H](C)C(=O)N[C@@H](CCC(N)=O)C(=O)N[C@@H](CCCNC(=N)N)C(=O)N[C@@H](C)C(=O)N[C@@H](Cc1ccccc1)C(=O)N[C@H](C(=O)N[C@@H](CCC(=O)O)C(=O)N[C@@H](Cc1c[nH]c2ccccc12)C(=O)N[C@@H](CC(C)C)C(=O)N[C@@H](CC(C)C)C(=O)N[C@@H](C)C(=O)N[C@@H](CCC(N)=O)C(=O)NCC(=O)N1CCC[C@H]1C(=O)N[C@@H](CO)C(=O)N[C@@H](CO)C(=O)NCC(=O)N[C@@H](C)C(=O)N1CCC[C@H]1C(=O)N1CCC[C@H]1C(=O)N1CCC[C@H]1C(=O)N[C@@H](CO)C(N)=O)C(C)C` [Compound 12], the concentration giving a half-maximal response (EC50) was 9 pM in data set [1], 9 pM in data set [2] and over 3000 pM in data set [3]. Also, the bioavailability in data set [4] was determined as 77%; in data set [4] (sc, repeated test), 98%. In addition, the half-life was 14.7 h in data set [4] (setting [5]) and 16.8 h in data set [4] (setting [6]). Moreover, the Tmax in data set [4] (sc) turned out to be 8 h.

Regarding `CC[C@H](C)[C@H](NC(=O)[C@H](CCCCN)NC(=O)[C@H](CCC(=O)O)NC(=O)[C@H](CC(C)C)NC(=O)[C@H](CCC(=O)O)NC(=O)[C@@H](NC(=O)[C@H](CO)NC(=O)[C@H](Cc1ccc(O)cc1)NC(=O)[C@H](CC(=O)O)NC(=O)[C@H](CO)NC(=O)[C@@H](NC(=O)[C@H](Cc1ccccc1)NC(=O)[C@@H](NC(=O)CNC(=O)[C@H](CCC(=O)O)NC(=O)C(C)(C)NC(=O)[C@@H](N)Cc1ccc(O)cc1)[C@@H](C)O)[C@@H](C)CC)[C@@H](C)CC)C(=O)N[C@@H](C)C(=O)N[C@@H](CCC(N)=O)C(=O)N[C@@H](CCCNC(=N)N)C(=O)N[C@@H](C)C(=O)N[C@@H](Cc1ccccc1)C(=O)N[C@H](C(=O)N[C@@H](CCC(=O)O)C(=O)N[C@@H](Cc1c[nH]c2ccccc12)C(=O)N[C@@H](CC(C)C)C(=O)N[C@@H](CC(C)C)C(=O)N[C@@H](C)C(=O)N[C@@H](CCC(N)=O)C(=O)NCC(=O)N1CCC[C@H]1C(=O)N[C@@H](CO)C(=O)N[C@@H](CO)C(=O)NCC(=O)N[C@@H](C)C(=O)N1CCC[C@H]1C(=O)N1CCC[C@H]1C(=O)N1CCC[C@H]1C(=O)N[C@@H](CO)C(=O)N[C@@H](CCCCNC(=O)COCCOCCNC(=O)COCCOCCNC(=O)CC[C@H](NC(=O)CCCCCCCCCCCCCCCCCCC(=O)O)C(=O)O)C(N)=O)C(C)C` [Compound 13] (H-Y[Aib]EGTFISDYSIELEKIAQRAFVEWLLAQGPSSGAPPPSK([AEEA-AEEA-γGlu-C20 diacid])-NH2), the concentration for a half-maximal effect (EC50) in data set [1] is 14 pM; in data set [2] it was 8 pM; in data set [3], over 10000 pM. For the same molecule, the bioavailability in data set [4] amounted to 75%. The results for the half-life in data set [4] (setting [5]) and in data set [4] (setting [6]) were 14.4 h and 13.7 h, respectively. In addition, the Tmax in data set [4] (sc) came out at 8 h.

As for `CC[C@H](C)[C@H](NC(=O)[C@H](Cc1ccccc1)NC(=O)[C@H](CC(=O)O)NC(=O)[C@H](CCC(N)=O)NC(=O)[C@H](C)NC(=O)[C@H](C)NC(=O)[C@H](CCCCNC(=O)COCCOCCNC(=O)COCCOCCNC(=O)CC[C@H](NC(=O)CCCCCCCCCCCCCCCCCCC(=O)O)C(=O)O)NC(=O)[C@H](CCCCN)NC(=O)[C@H](CC(=O)O)NC(=O)[C@H](CC(C)C)NC(=O)[C@H](CCC(=O)O)NC(=O)[C@@H](NC(=O)[C@H](CO)NC(=O)[C@H](Cc1ccc(O)cc1)NC(=O)[C@H](CC(=O)O)NC(=O)[C@H](CO)NC(=O)[C@@H](NC(=O)[C@H](Cc1ccccc1)NC(=O)[C@@H](NC(=O)CNC(=O)[C@H](CCC(=O)O)NC(=O)C(C)(C)NC(=O)[C@@H](N)Cc1ccc(O)cc1)[C@@H](C)O)[C@@H](C)CC)[C@@H](C)CC)C(=O)N[C@@H](CC(N)=O)C(=O)N[C@@H](Cc1c[nH]c2ccccc12)C(=O)N[C@@H](CC(C)C)C(=O)N[C@@H](CC(C)C)C(=O)N[C@@H](C)C(=O)N[C@@H](CCC(N)=O)C(=O)NCC(=O)N1CCC[C@H]1C(=O)N[C@@H](CO)C(=O)N[C@@H](CO)C(=O)NCC(=O)N[C@@H](C)C(=O)N1CCC[C@H]1C(=O)N1CCC[C@H]1C(=O)N1CCC[C@H]1C(=O)N[C@@H](CO)C(N)=O` [Compound 39] (H-Y[Aib]EGTFISDYSIELDKK([AEEA-AEEA-γGlu-C20 diacid])AAQDFINWLLAQGPSSGAPPPS-NH2), the EC50 in data set [1] was 7 pM; in data set [2], 1 pM; in data set [3] it was over 100000 pM.

In the case of `CC[C@H](C)[C@H](NC(=O)[C@H](Cc1ccccc1)NC(=O)[C@H](C)NC(=O)[C@H](CCC(N)=O)NC(=O)[C@H](C)NC(=O)[C@H](C)NC(=O)[C@H](CCCCNC(=O)COCCOCCNC(=O)COCCOCCNC(=O)CC[C@H](NC(=O)CCCCCCCCCCCCCCCCCCC(=O)O)C(=O)O)NC(=O)[C@H](CCCCN)NC(=O)[C@H](CC(=O)O)NC(=O)[C@H](CC(C)C)NC(=O)[C@H](CCC(=O)O)NC(=O)[C@@H](NC(=O)[C@H](CO)NC(=O)[C@H](Cc1ccc(O)cc1)NC(=O)[C@H](CC(=O)O)NC(=O)[C@H](CO)NC(=O)[C@@H](NC(=O)[C@H](Cc1ccccc1)NC(=O)[C@@H](NC(=O)CNC(=O)[C@H](CCC(=O)O)NC(=O)C(C)(C)NC(=O)[C@@H](N)Cc1ccc(O)cc1)[C@@H](C)O)[C@@H](C)CC)[C@@H](C)CC)C(=O)N[C@@H](CCC(=O)O)C(=O)N[C@@H](Cc1c[nH]c2ccccc12)C(=O)N[C@@H](CC(C)C)C(=O)N[C@@H](CC(C)C)C(=O)N[C@@H](C)C(=O)N[C@@H](CCC(N)=O)C(=O)NCC(=O)N1CCC[C@H]1C(=O)N[C@@H](CO)C(=O)N[C@@H](CO)C(=O)NCC(=O)N[C@@H](C)C(=O)N1CCC[C@H]1C(=O)N1CCC[C@H]1C(=O)N1CCC[C@H]1C(=O)N[C@@H](CO)C(N)=O` [Compound 40], the results for the concentration for a half-maximal effect (EC50) in data set [1], in data set [2] and in data set [3] were 10 pM, 7 pM and over 10000 pM, respectively.
